From US11440906B2, “Biguanide derivatives and their rearrangement products for use in the treatment of cancer” (CENTRE NATIONAL DE LA RECHERCHE SCIENTIFIQUE, priority 2017, dated 2022) come the findings set out here.

Read-outs that look alike come from different tables or passages of the source.

The test deals with A375 Sensitive cells. As to the kind of experiment: Viability test, trypan blue exclusion, A375 Sensitive cells. To be noted: Homo sapiens, A-375, viable cells as percentage of DMSO control. Format: cell-based, human. In outline: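 A375 (B-Raf, CDKN2A, PTEN mutant) cells were exposed to compounds at 5.0 or 10 μM for 24 or 48 hr; CRO15 also at 0.5–50 μM for 48 hr or 5 μM for 2–48 hr; DMSO control. Viable cells were counted by trypan blue exclusion, as % of control. Three experiments in triplicate.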

[1] abbreviates: 24 h, read-out: Viab A375 5 μM/ 24 h.
[2] abbreviates: 48 h, read-out: Viab A375 5 μM/ 48 h.
The mark [3] stands for this setting: 24 h, read-out: Viab A375 10 μM/ 24 h.
[4] abbreviates: 48 h, read-out: Viab A375 10 μM/ 48 h.

As to `Nc1nc(Nc2ccccc2SSc2ccccc2Nc2nc(N)nc(-c3cccnc3)n2)nc(-c2cccnc2)n1` [MTF 330, N2,N2′-(disulfanediylbis(2,1-phenylene))bis(6-(pyridin-3-yl)-1,3,5-triazine-2,4-diamine)], the viability at 5 µM is 123% under setting [1] and 73.9% under setting [2]. The viability at 10 µM reads like this: under setting [3], 60.1%; under setting [4], 41.6%.
Turning to `Nc1nc(Nc2ccccc2O)nc(-c2cccc(Br)c2)n1` [MTF 331, 2-((4-amino-6-(3-bromophenyl)-1,3,5-triazin-2-yl)amino)phenol], the viability at 5 µM reads like this: under setting [1], 104%; under setting [2], 82.9%. In addition, the viability at 10 µM under setting [3] worked out at 151% and the viability at 10 µM under setting [4] was 77.4%.
For the molecule `Nc1nc(Nc2ccccc2O)nc(-c2cccc(Cl)c2)n1` [MTF 332, 2-((4-amino-6-(3-chlorophenyl)-1,3,5-triazin-2-yl)amino)phenol], the viability at 5 µM under setting [1] turned out to be 122% and the viability at 5 µM under setting [2] came to 87.6%. Also, the viability at 10 µM reads like this: under setting [3], 104%; under setting [4], 65.4%.
Regarding `Nc1nc(Cc2ccccc2)nc(Nc2ccccc2SSc2ccccc2Nc2nc(N)nc(Cc3ccccc3)n2)n1` [MTF 333], the viability at 5 µM is 94.9% under setting [1] and 35.4% under setting [2]. Also, the viability at 10 µM stood at 28.7% under setting [3] and 24.1% under setting [4].
In the case of `COc1cccc(C(=N)NC(=N)Nc2nc3ccccc3s2)c1` [MTF 342, N—(N-(benzo[d]thiazol-2-yl)carbamimidoyl)-3-methoxybenzimidamide], the viability at 5 µM was 48.6% under setting [1] and 8.6% under setting [2]. Further, the viability at 10 µM worked out at 32.2% under setting [3] and 8.6% under setting [4].
As to `N=C(NC(=N)c1cccc(C(F)(F)F)c1)Nc1nc2ccccc2s1` [MTF 343, N—(N-(benzo[d]thiazol-2-yl)carbamimidoyl)-3-(trifluoromethyl)benzimidamide], the viability at 5 µM turned out to be 67.7% under setting [1] and 52.9% under setting [2]. Further, the viability at 10 µM is, setting by setting: under setting [3], 34.8%; under setting [4], 24.1%.
`CCOc1cccc(C(=N)NC(=N)Nc2nc3ccccc3s2)c1` [MTF 344, N—(N-(benzo[d]thiazol-2-yl)carbamimidoyl)-3-ethoxybenzimidamide]: the viability at 5 µM under setting [1] was 84.3% and the viability at 5 µM under setting [2] turned out to be 26.1%. Moreover, the viability at 10 µM was 38.7% under setting [3] and 26.1% under setting [4].
As to `N=C(NC(=N)c1cnccn1)Nc1nc2ccccc2s1` [MTF 345, N—(N-(benzo[d]thiazol-2-yl)carbamimidoyl)pyrazine-2-carboximidamide], the viability at 5 µM by setting is: under setting [1], 25.9%; under setting [2], 1.8%. Besides, the viability at 10 µM came to 17.1% under setting [3] and 1% under setting [4].
With `N=C(NC(=N)c1cccc(F)c1)Nc1nc2ccccc2s1` [MTF 346, N—(N-(benzo[d]thiazol-2-yl)carbamimidoyl)-3-fluorobenzimidamide], the viability at 5 µM under setting [1] was 66.9% and the viability at 5 µM under setting [2] is 10.6%. Besides, the viability at 10 µM under setting [3] came to 43.2% and the viability at 10 µM under setting [4] is 12.9%.
Turning to `N#Cc1cccc(C(=N)NC(=N)Nc2nc3ccccc3s2)c1` [MTF 347, N—(N-(benzo[d]thiazol-2-yl)carbamimidoyl)-3-cyanobenzimidamide], the viability at 5 µM came out at 26.9% under setting [1] and 6.6% under setting [2]. Besides, the viability at 10 µM under setting [3] is 27.6% and the viability at 10 µM under setting [4] was 6.8%.
The corresponding values for `Nc1nc(Nc2ccccc2SSc2ccccc2Nc2nc(N)nc(-c3cnccn3)n2)nc(-c2cnccn2)n1` [MTF 348, N2,N2′-(disulfanediylbis(2,1-phenylene))bis(6-(pyrazin-2-yl)-1,3,5-triazine-2,4-diamine)] are 102%, 79.6%, 110% and 35.8%.
The like results for `N=c1nc(C(Cl)(Cl)Cl)nc(Nc2ccccc2O)[nH]1` [MTF 373, 2-((4-amino-6-(trichloromethyl)-1,3,5-triazin-2-yl)amino)phenol] were, in that order, 34.3%, 22.5%, 38.6% and 22.8%.
As for `N=c1nc(C(Cl)(Cl)Cl)nc(Nc2cc(Cl)ccc2O)[nH]1` [MTF 374, 2-((4-amino-6-(trichloromethyl)-1,3,5-triazin-2-yl)amino)-4-chlorophenol], the viability at 5 µM was 47% under setting [1] and 69.2% under setting [2]. Also, the viability at 10 µM under setting [3] is 24% and the viability at 10 µM under setting [4] amounted to 27.7%.
On to `N=c1nc(C(Cl)(Cl)Cl)nc(Nc2ccc(Cl)cc2O)[nH]1` [MTF 375], for which the viability at 5 µM by setting is: under setting [1], 47.2%; under setting [2], 29.5%. Also, the viability at 10 µM runs as follows: under setting [3], 30.9%; under setting [4], 15.5%.
As to `Nc1nc(Nc2ccc([N+](=O)[O-])cc2O)nc(C(Cl)(Cl)Cl)n1` [MTF 376, 2-((4-amino-6-(trichloromethyl)-1,3,5-triazin-2-yl)amino)-5-nitrophenol], the viability at 5 µM worked out at 44.7% under setting [1] and 38.9% under setting [2]. For the same molecule, the viability at 10 µM stood at 24.3% under setting [3] and 20.9% under setting [4].
With `Nc1nc(Nc2cc([N+](=O)[O-])ccc2O)nc(C(Cl)(Cl)Cl)n1` [MTF 377, 2-((4-amino-6-(trichloromethyl)-1,3,5-triazin-2-yl)amino)-4-nitrophenol], the viability at 5 µM under setting [1] came out at 27.3% and the viability at 5 µM under setting [2] was found to be 34.4%. The viability at 10 µM under setting [3] came out at 22.7% and the viability at 10 µM under setting [4] turned out to be 33.5%.
Turning to `N=C(NC(=N)c1ccc(Cl)nc1)Nc1nc2ccccc2s1` [MTF 379, N—(N-(benzo[d]thiazol-2-yl)carbamimidoyl)-6-chloronicotinimidamide], the viability at 5 µM runs as follows: under setting [1], 148%; under setting [2], 76.9%. Further, the viability at 10 µM by setting is: under setting [3], 95.7%; under setting [4], 86.2%.
The like results for `N=C(NC(=N)c1ccnc(Cl)c1)Nc1nc2ccccc2s1` [MTF 380, N—(N-(benzo[d]thiazol-2-yl)carbamimidoyl)-2-chloroisonicotinimidamide] were, in that order, 47.3%, 4.9%, 36.2% and 2.3%.
On to `N=C(NC(=N)c1cccs1)Nc1nc2ccccc2s1` [MTF 381, N—(N-(benzo[d]thiazol-2-yl)carbamimidoyl)thiophene-2-carboximidamide], for which the viability at 5 µM under setting [1] was determined as 88.3% and the viability at 5 µM under setting [2] amounted to 61.6%. In addition, the viability at 10 µM is, setting by setting: under setting [3], 90.6%; under setting [4], 61.4%.
Turning to `COc1cc(C(=N)NC(=N)Nc2nc3ccccc3s2)cc(OC)c1OC` [MTF 382, N—(N-(benzo[d]thiazol-2-yl)carbamimidoyl)-3,4,5-trimethoxybenzimidamide], the viability at 5 µM runs as follows: under setting [1], 14.7%; under setting [2], 1.8%. The viability at 10 µM under setting [3] was 17.4% and the viability at 10 µM under setting [4] amounted to 4.5%.
Consider `N=C(NC(=N)c1ccc2c(c1)OCO2)Nc1nc2ccccc2s1` [MTF 383, N—(N-(benzo[d]thiazol-2-yl)carbamimidoyl)benzo[d][1,3]dioxole-5-carboximidamide], for which the viability at 5 µM is 43.1% under setting [1] and 40.6% under setting [2]. The viability at 10 µM runs as follows: under setting [3], 41.6%; under setting [4], 7.1%.
Consider `N=C(NC(=N)c1ccc2ccccc2c1)Nc1nc2ccccc2s1` [MTF 384, N—(N-(benzo[d]thiazol-2-yl)carbamimidoyl)-2-naphthimidamide], for which the viability at 5 µM under setting [1] came out at 76.1% and the viability at 5 µM under setting [2] stood at 119%. For the same molecule, the viability at 10 µM came to 93.3% under setting [3] and 72.2% under setting [4].
On to `N=C(NC(=N)c1ccc(C(F)(F)F)cc1)Nc1nc2ccccc2s1` [MTF 385, N—(N-(benzo[d]thiazol-2-yl)carbamimidoyl)-4-(trifluoromethyl)benzimidamide], for which the viability at 5 µM under setting [1] stood at 52.3% and the viability at 5 µM under setting [2] came to 68.1%. For the same molecule, the viability at 10 µM under setting [3] was 86.6% and the viability at 10 µM under setting [4] is 81.5%.
With `N=C(NC(=N)c1ccnc(Br)c1)Nc1nc2ccccc2s1` [MTF 386, N—(N-(benzo[d]thiazol-2-yl)carbamimidoyl)-2-bromoisonicotinimidamide], the viability at 5 µM under setting [1] was 28.9% and the viability at 5 µM under setting [2] is 6.6%. Moreover, the viability at 10 µM reads like this: under setting [3], 18.1%; under setting [4], 3.7%.
With `N=C(NC(=N)c1cscc1Br)Nc1nc2ccccc2s1` [MTF 387, N—(N-(benzo[d]thiazol-2-yl)carbamimidoyl)-4-bromothiophene-3-carboximidamide], the viability at 5 µM is, setting by setting: under setting [1], 70.1%; under setting [2], 56.2%. The viability at 10 µM is, setting by setting: under setting [3], 67.8%; under setting [4], 55.6%.
With `CC1(C)C=Cc2cc(C(=N)NC(=N)Nc3nc4ccccc4s3)ccc2O1` [MTF 388, N—(N-(benzo[d]thiazol-2-yl)carbamimidoyl)-2,2-dimethyl-2H-chromene-6-carboximidamide], the viability at 5 µM under setting [1] stood at 61.4% and the viability at 5 µM under setting [2] amounted to 65.1%. Moreover, the viability at 10 µM by setting is: under setting [3], 55.7%; under setting [4], 18.4%.
The like results for `N=C(NC(=N)c1ncc(Cl)cc1Cl)Nc1nc2ccccc2s1` [MTF 389, N—(N-(benzo[d]thiazol-2-yl)carbamimidoyl)-3,5-dichloropicolinimidamide] were, in that order, 74.6%, 85.6%, 75.8% and 76.4%.
